Where two headings read alike, the source gives them in different places.
Key:
tau protein (4R) [1] = target: T1, tau protein (4R) (Homo sapiens, UniProt P10636); experiment: ThT fluorescence of heparin-induced aggregation of purified tau 4R, single concentration […]; format: biochemical
T1 construct: gene MAPT; fragment 4R (htau244–372), His-tagged

tau protein (4R) [2] = target: T1, tau protein (4R); experiment: ThT fluorescence of heparin-induced aggregation of purified tau 4R; supported by AFM and Raman; format: biochemical

T1 sequence (P10636 561-689): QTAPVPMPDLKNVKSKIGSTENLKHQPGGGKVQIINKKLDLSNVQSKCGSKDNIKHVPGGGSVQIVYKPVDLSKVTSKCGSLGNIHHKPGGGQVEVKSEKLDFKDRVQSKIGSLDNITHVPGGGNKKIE

inhibition at 50 µM (tau protein (4R) [1]; read-out: Inhibition (%)) [%] | Structure (SMILES) | other results
68 | CC(C)c1cc2c(c(O)c1O)[C@@]13CCCC(C)(C)[C@@H]1C[C@@H]2OC3=O [compound 1, carnosol] | –
– | CC(C)c1cc2c(c(O)c1O)[C@@]1(C(=O)O)CCCC(C)(C)[C@@H]1CC2 [compound 2, carnosic acid] | inhibition at 50 µM (tau protein (4R) [1]): 65%
50 | CC(C)c1cc2c(c(O)c1O)[C@@]13CCCC(C)(C)[C@@H]1[C@H](OC3=O)[C@H]2O [compound 3, rosmanol] | –
70 | CC(C)c1cc2c(c(O)c1O)[C@@]13CCCC(C)(C)[C@@H]1[C@H](O)[C@@H]2OC3=O [compound 4, epiisorosmanol] | –
– | O=C(/C=C/c1ccc(O)c(O)c1)O[C@H](Cc1ccc(O)c(O)c1)C(=O)O [compound 5, rosmarinic acid] | IC50 (tau protein (4R) [2]): 7.7 µM

Source: publication PMC6009890, “Rosmarinic acid prevents fibrillization and diminishes vibrational modes associated to β sheet in tau protein linked to Alzheimer’s disease” (Journal of Enzyme Inhibition and Medicinal Chemistry, 2017)
